Experimental data reported in US5202339A, “Hydantoin derivatives” (Mochida Pharmaceutical Co., Ltd., priority 1987, dated 1993).
pIC50: −log10 of the molar value. Entries after “also recorded” stand apart in the source; their conditions may differ.

Legend:
[1] = system: Streptozotocin-Diabetic Rats; assay: Hypoglycemic Effects in Streptozotocin-Diabetic Rats (Experimental Example 4); assay type: in vivo, rat (male Wistar); details: STZ-diabetic rats, 100 mg/kg oral; for inhibition in vivo at 100 mg/kg: Rattus norvegicus, 6 hrs after administration, read-out: Lowering rate of serum glucose (%)
Procedure: (§1) Diabetic rats were produced according to the method of Junod et al. (A. Junod et al., J. Clin. Invest., 48, 2129 (1969)). Briefly, male Wistar rats were given 26.5 mg/kg of streptozotocin (STZ) intravenously. Four days later, the rats with serum glucose levels of between 400 and 500 mg/dl were used. After being fasted for 4 hrs, groups of 5 diabetic rats were orally administered with the compounds of the present invention or gliclazide in a dose of 100 mg/kg. Blood sample were collected from the orbital vein before and 6 hrs after the administration. Serum glucose levels were determined by the enzymatic method with an autoanalyzer (Cobas Fara®, Roche).

[2] = target: T1, rat lens aldose reductase (Rattus norvegicus, UniProt P07943); assay: inhibitory activity on rat lens aldose reductase (Experimental Example 1); assay type: biochemical; details: pH 6.2, 10 mM DL-glyceraldehyde, 0.16 mM NADPH
T1 construct: rat lens aldose reductase; from tissue; host or cells: rat lens
Procedure: The inhibitory activities of hydantoin derivatives on rat lens aldose reductase were measured according to the procedure of Inagaki et al. (K. Inagaki et al., Arch. Biochem. Biophys., 216, 337 (1982)) with slight modifications. Assays were performed in 0.1M phosphate buffer (pH 6.2) containing 0.4M ammonium sulfate, 10 mM DL-glyceraldehyde, 0.16 mM nicotinamide adenine dinucleotide phosphate, reduced form (NADPH) and aldose reductase (0.010-0.016 units) in a total volume of 1.0 ml. To this mixture was added 10 μl of the solution of each hydantoin derivative to be tested, and the decrease in absorbance at 340 nm was measured with a spectrophotometer.
The concentrations of typical hydantoin derivatives of the present invention required to produce 50% inhibition are shown in table 1.

ICR strain mice = assay: acute toxicity in mice (Experimental Example 3); assay type: in vivo; details: 1 g/kg, oral, groups of 5 ICR mice
Text: Hydantoin derivatives of the present invention were examined for acute toxicity.

[3] = target: T2, bovine lens aldose reductase (Bos taurus, UniProt P16116); assay: inhibitory activity on bovine lens aldose reductase (Experimental Example 2); assay type: biochemical; details: pH 6.2, 10 mM DL-glyceraldehyde, 0.16 mM NADPH
T2 construct: bovine lens aldose reductase preparation was used; from tissue; host or cells: bovine lens
Procedure: Assays were performed in 0.1M phosphate buffer (pH 6.2) containing 0.4M ammonium sulfate, 10 mM DL-glyceraldehyde, 0.16 mM nicotinamide adenine dinucleotide phosphate, reduced form (NADPH) and aldose reductase (0.010-0.016 units) in a total volume of 1.0 ml. To this mixture was added 10 μl of the solution of each hydantoin derivative to be tested, and the decrease in absorbance at 340 nm was measured with a spectrophotometer.

Normal Rats = assay: Hypoglycemic Effects in Normal Rats (Experimental Example 6); assay type: in vivo, rat (male Wistar); details: normal animals
Procedure: Groups of 5 male Wistar rats, after being fasted for 4 hrs, where orally administered with compound 38 or 47 of the present invention or gliclazide. Blood samples were collected from the orbital vein before, 1 hr and 6 hrs after the administration. Serum glucose levels were determined by the enzymatic method with an autoanalyzer (Cobas Fara®, Roche).

[4] = system: Streptozotocin-Diabetic Rats; assay: Hypolipidemic Effects in Streptozotocin-Diabetic Rats (Experimental Example 7); assay type: in vivo, rat (male Wistar); details: STZ-diabetic rats, 100 mg/kg oral for 2 weeks
Procedure: as §1
(§2) Diabetic rats were produced according to the method described previously. Groups of 5 diabetic rats were orally administered with compound 38 or 47 of the present invention at a dose of 100 mg/kg for 2 weeks. The rats were deprived of food 4 hrs before the last administration, and 6 hrs after the last administration, blood samples were collected from the orbital vein. Serum triglyceride (TG), non-esterified fatty acid (NEFA) and cholesterol (CHOL) levels were determined by the enzymatic method with an autoanalyzer (Cobas Fara®, Roche). In this experiment, each parameters of serum lipids in streptozotocin-diabetic rats increased by 40 % of normal rats in the mean value.

[5] = system: Streptozotocin-Diabetic Rats; assay: Ketone Body Lowering Effects in Streptozotocin-Diabetic Rats (Experimental Example 5); assay type: in vivo, rat (male Wistar); details: STZ-diabetic rats, oral for 2 weeks
Procedure: as §1
as §2, with “invention” for “invention at a dose of 100 mg/kg”, “total ketone body (KB)” for “triglyceride (TG), non-esterified fatty acid (NEFA) and cholesterol (CHOL)”, “experiment,” for “experiment, each parameters of”, “total ketone body levels” for “lipids”, “92” for “40”

SMILES | inhibition in vivo at 100 mg/kg [1] [%] | pIC50 [2] | acute toxicity: change observed over the one-week period after administration (ICR strain mice) | pIC50 [3] | influence on serum glucose level of normal rats (in words) (Normal Rats) | lowering of serum lipid levels (in words) [4] | lowering of serum total ketone body levels (in words) [5] | hypoglycemic activity in diabetic animals (in words) [1]
O=C1CN(S(=O)(=O)c2cc3ccc(Cl)cc3cc2Cl)C(=O)N1 [Compound 7, 1-(3,6-dichloronaphthalen-2-ylsulfonyl)hydantoin] | 23.2 | 6.62 | no change was observed |  |  |  |  | 
O=C1CN(S(=O)(=O)c2oc3ccccc3c2Br)C(=O)N1 [Compound 38, 1-(3-bromobenzo[b]furan-2-ylsulfonyl)hydantoin] | 33.5 |  | no change was observed | 6.80 | lesser influences on serum glucose level of normal rats | lowering activities of serum triglyceride, non esterified fatty acid and cholesterol levels | lowering activity of serum total ketone body levels | 
O=C1CN(S(=O)(=O)c2oc3ccccc3c2Cl)C(=O)N1 [Compound 47, 1-(3-chlorobenzo[b]furan-2-ylsulfonyl)hydantoin] | 44.7 |  |  |  | lesser influences on serum glucose level of normal rats | lowering activities of serum triglyceride, non esterified fatty acid and cholesterol levels | lowering activity of serum total ketone body levels | 
Cc1ccc(S(=O)(=O)NC(=O)NN2CC3CCCC3C2)cc1 (stereo not shown) [Compound C, gliclazide, reference compound] | 11 |  |  |  | significantly lowered serum glucose level of normal rats; also recorded: remarkable hypoglycemic activity in normal animals |  |  | less potent hypoglycemic activity than all compounds of the present invention
